Values quoted from earlier work as cited in patent US8518429B2, “Arsenic trioxide medical elution scaffold” (Beijing Amsino Medical Co., Ltd., priority 2007, dated 2013).

How the values were obtained:
VSMCs = conditions: found by Zhuoqi ZHANG et al. and Jianwei SHAO et al.
promyelocytic leukemia = conditions: used by hematologists in 1970s

Arsenic trioxide [As2O3]
effects on VSMCs (VSMCs): anti-proliferation, apoptosis promotion and cell cycle arrest | therapeutic effect in promyelocytic leukemia (promyelocytic leukemia): notable therapeutic effect
